# Test results: patent US20250368667A1, “USP1 INHIBITOR” (Shanghai Qilu Pharmaceutical Research and Development …, priority 2022, published 2025)
# Target: recombinant human His6-USP1/His6-UAF1 composite protein (Homo sapiens (Human), UniProt O94782)
# Assay: USP1 enzyme activity detection (Ub-Rho fluorescence)
# Type: biochemical
# Conditions: USP1/UAF1, Ub-Rho substrate 300 nM, 1 hour pre-incubation; read-out: IC50 (enzymatic inhibition of USP1)
# recombinant human His6-USP1/His6-UAF1 composite protein, sequence (O94782 whole entry): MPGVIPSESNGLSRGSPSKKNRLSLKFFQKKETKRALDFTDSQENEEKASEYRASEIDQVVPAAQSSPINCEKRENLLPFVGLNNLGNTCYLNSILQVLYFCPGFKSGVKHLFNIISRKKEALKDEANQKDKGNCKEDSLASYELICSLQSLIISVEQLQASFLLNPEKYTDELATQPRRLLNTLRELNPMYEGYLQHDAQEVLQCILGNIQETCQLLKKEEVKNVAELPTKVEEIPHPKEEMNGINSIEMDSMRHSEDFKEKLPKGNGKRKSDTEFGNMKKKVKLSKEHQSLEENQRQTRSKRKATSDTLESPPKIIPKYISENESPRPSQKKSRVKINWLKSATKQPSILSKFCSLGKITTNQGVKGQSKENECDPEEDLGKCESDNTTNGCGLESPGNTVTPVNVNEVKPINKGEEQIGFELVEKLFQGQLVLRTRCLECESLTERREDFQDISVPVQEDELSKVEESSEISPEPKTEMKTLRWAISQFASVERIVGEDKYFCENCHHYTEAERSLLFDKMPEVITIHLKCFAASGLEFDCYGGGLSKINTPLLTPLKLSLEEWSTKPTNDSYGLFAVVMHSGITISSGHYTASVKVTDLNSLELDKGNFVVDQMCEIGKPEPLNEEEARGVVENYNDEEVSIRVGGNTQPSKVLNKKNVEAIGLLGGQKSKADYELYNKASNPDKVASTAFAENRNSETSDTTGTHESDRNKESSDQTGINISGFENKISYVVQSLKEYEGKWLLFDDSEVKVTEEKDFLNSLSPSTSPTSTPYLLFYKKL
# recombinant human His6-USP1/His6-UAF1 composite protein, sequence (Q8TAF3 whole entry partner): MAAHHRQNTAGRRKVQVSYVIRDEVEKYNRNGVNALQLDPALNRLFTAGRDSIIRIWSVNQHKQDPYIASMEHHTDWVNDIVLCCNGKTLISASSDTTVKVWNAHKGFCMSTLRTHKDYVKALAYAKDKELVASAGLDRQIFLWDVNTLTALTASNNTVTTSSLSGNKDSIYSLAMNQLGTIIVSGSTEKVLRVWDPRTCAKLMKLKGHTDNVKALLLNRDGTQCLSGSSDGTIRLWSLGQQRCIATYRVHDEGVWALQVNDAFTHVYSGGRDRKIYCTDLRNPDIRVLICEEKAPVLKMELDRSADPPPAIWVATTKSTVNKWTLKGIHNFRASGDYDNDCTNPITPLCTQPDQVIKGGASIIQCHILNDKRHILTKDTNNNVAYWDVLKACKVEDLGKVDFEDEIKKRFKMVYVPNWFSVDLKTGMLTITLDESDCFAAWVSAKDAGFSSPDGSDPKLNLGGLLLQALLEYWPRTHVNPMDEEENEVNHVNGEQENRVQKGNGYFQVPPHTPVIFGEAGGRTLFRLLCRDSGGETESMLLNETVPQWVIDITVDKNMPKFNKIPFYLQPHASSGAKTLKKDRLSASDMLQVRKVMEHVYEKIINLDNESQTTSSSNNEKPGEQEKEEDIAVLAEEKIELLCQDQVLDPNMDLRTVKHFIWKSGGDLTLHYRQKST
row,Structure (SMILES),IC50 [nM]
1,COc1ncnc(C2CC2)c1-c1ncc2c3cccc(F)c3n(Cc3ccc(-n4nc(C(F)(F)F)cc4C)cc3)c2n1 [Compound 49],21.2
2,CCC(c1ccc(-c2nc(C(F)(F)F)cn2C(C)C)cc1)n1c2ccccc2c2cnc(-c3c(OC)ncnc3C3CC3)nc21 (centres unmarked) [Compound 23],11.7
3,COc1ncnc(C2CC2)c1-c1ncc2c3cccc(C#N)c3n(Cc3ccc(-c4nc(C(F)(F)F)cn4C)cc3)c2n1 [Compound 26],11.5
4,CCn1cc(C(F)(F)F)nc1-c1ccc(Cn2c3nc(-c4c(OC)ncnc4C4CC4)ncc3c3cccc(F)c32)cc1 [Compound 35],9.82
5,COc1ncnc(C2CC2)c1-c1ncc2c3cccc(Cl)c3n(Cc3ccc(-c4nc(C(F)(F)F)cn4C)cc3)c2n1 [Compound 44],4.22
6,COc1cc(Cn2c3ccccc3c3cnc(-c4c(OC)ncnc4C4CC4)nc32)cc(F)c1-c1nc(C(F)(F)F)cn1C(C)C [Compound 19],8.25
7,COc1ncnc(C2CC2)c1-c1ncc2c3ccncc3n(Cc3ccc4c(c3)CCCn3cc(C(F)(F)F)nc3-4)c2n1 [Compound 61],3.14
8,COc1ncnc(C2CC2)c1-c1ncc2c3cccnc3n(Cc3ccc4c(c3)CCCn3cc(C(F)(F)F)nc3-4)c2n1 [Compound 63],2.74
9,COc1ncnc(C2CC2)c1-c1ncc2c3ccccc3n([C@H](C)c3ccc(-c4nc(C(F)(F)F)cn4C(C)C)cc3)c2n1 [Compound 13-P2],5
10,COc1ncnc(C2CC2)c1-c1ncc2c3ccc(C(F)(F)F)cc3n(Cc3ccc(-c4nc(C(F)(F)F)cn4C)cc3)c2n1 [Compound 41],35.2
11,COc1ncnc(C2CC2)c1-c1ncc2c(n1)n(Cc1ccc(-c3nc(C(F)(F)F)cn3C(C)C)cc1)c1nccn21 [Compound 32],19.1
12,CC(C)n1ncc(Cl)c1-c1ncc2c3ccccc3n(Cc3ccc(-c4nc(C(F)(F)F)cn4C)cc3)c2n1 [Compound 20],3.26
13,COc1ncnc(C2CC2)c1-c1ncc2c3ccc(C#N)cc3n(Cc3ccc4c(c3)Cn3cc(C(F)(F)F)nc3-4)c2n1 [Compound 70],191
14,CCn1cc(C(F)(F)F)nc1-c1ccc(Cn2c3cc(C#N)ccc3c3cnc(-c4c(OC)ncnc4C4CC4)nc32)cc1 [Compound 50],4.84
15,CCn1cc(C(F)(F)F)nc1-c1ccc(Cn2c3cnccc3c3cnc(-c4c(OC)ncnc4C4CC4)nc32)cc1 [Compound 66],1.62

# Second part, the compound after the results:
row,IC50 [nM],Structure (SMILES)
1,5.91,[2H]C([2H])([2H])n1cc2c3cnc(-c4c(OC)ncnc4C4CC4)nc3n(Cc3ccc(-c4nc(C(F)(F)F)cn4C(C)C)c(F)c3)c2n1 [Compound 145]
2,1,COc1ncnc(C2CC2)c1-c1ncc2c3ccncc3n(Cc3ccc(-c4nc(C(F)(F)F)c(C)n4C)cc3)c2n1 [Compound 151]
3,1.97,COc1ncnc(C2CC2)c1-c1ncc2c3cn(C)nc3n(Cc3ccc(-c4nc(C(F)(F)F)c5n4CCCC5)cc3)c2n1 [Compound 120]
4,3.69,COc1ncnc(C2CC2)c1-c1ncc2c3ccc(F)nc3n(Cc3ccc4c(c3)CCCn3cc(C(F)(F)F)nc3-4)c2n1 [Compound 94]
5,1.8,COc1ncnc(C2CC2)c1-c1ncc2c3cn(C)nc3n(Cc3ccc4c(c3)CCCCn3cc(C(F)(F)F)nc3-4)c2n1 [Compound 138]
6,3.57,COc1ncnc(C2CC2)c1-c1ncc2c3cn(C)nc3n(Cc3ccc(-c4nc(C(F)(F)F)cn4C)c(F)c3)c2n1 [Compound 118]
7,4.13,CNc1ccc2c3cnc(-c4c(OC)ncnc4C4CC4)nc3n(Cc3ccc(-c4nc(C(F)(F)F)cn4C)cc3)c2n1 [Compound 74]
8,4.8,COc1ncnc(C2CC2)c1-c1ncc2c3ccc(C)nc3n(Cc3ccc4c(c3)CCCn3cc(C(F)(F)F)nc3-4)c2n1 [Compound 128]
9,36,COc1ncnc(C2CC2)c1-c1ncc2c3ccc(C#N)cc3n(Cc3ccc(-c4nc(C(F)(F)F)c5cnccn45)cc3)c2n1 [Compound 129]
10,4,COc1ncnc(C2CC2)c1-c1ncc2c3ccc(P4(=O)CCCC4)cc3n(Cc3ccc(-c4nc(C(F)(F)F)cn4C(C)C)c(F)c3)c2n1 [Compound 141]
11,7.52,COc1ncnc(C2CC2)c1-c1ncc2c3cn(C)nc3n(Cc3ccc(-c4nc(C(F)(F)F)cn4C)cc3)c2n1 [Compound 108]
